# Measurements as given in ChEMBL document CHEMBL4152249, “Alkoxyphenylthiazoles with broad-spectrum activity against multidrug-resistant gram-positive bacterial pathogens” (Eur J Med Chem, 2018).
# Active and inactive are the calls of the source. The calls are words filed in the database; no cut-off is given here.
# Columns and labels:
# Staphylococcus aureus [1] = test: Antibacterial activity against methicillin-resistant Staphylococcus aureus USA400 NRS123 after 1 passages over 2 weeks by broth microdilution method; format: functional, organism-based
# Staphylococcus aureus [2] = test: Antibacterial activity against methicillin-resistant Staphylococcus aureus 2658 RCMB after 20 hrs by broth microdilution assay; format: functional
# Staphylococcus aureus [3] = test: Bactericidal activity against methicillin-sensitive Staphylococcus aureus NRS107 incubated for 20 hrs followed by re-plating on tryptic soy agar plates at 37 degC for 18 hrs by broth microdilution assay; format: functional
# Staphylococcus aureus [4] = test: Bactericidal activity against linezolid-resistant Staphylococcus aureus NRS119 incubated for 20 hrs followed by re-plating on tryptic soy agar plates at 37 degC for 18 hrs by broth microdilution assay; format: functional
# Staphylococcus aureus [5] = test: Bactericidal activity against Staphylococcus aureus USA400 NRS123 incubated for 20 hrs followed by re-plating on tryptic soy agar plates at 37 degC for 18 hrs by broth microdilution assay; format: functional
# Staphylococcus aureus [6] = test: Bactericidal activity against Staphylococcus aureus USA300 NRS384 incubated for 20 hrs followed by re-plating on tryptic soy agar plates at 37 degC for 18 hrs by broth microdilution assay; format: functional
# Staphylococcus aureus [7] = test: Bactericidal activity against methicillin-resistant Staphylococcus aureus NRS385 incubated for 20 hrs followed by re-plating on tryptic soy agar plates at 37 degC for 18 hrs by broth microdilution assay; format: functional
# Staphylococcus aureus [8] = test: Bactericidal activity against methicillin-resistant Staphylococcus aureus NRS386 incubated for 20 hrs followed by re-plating on tryptic soy agar plates at 37 degC for 18 hrs by broth microdilution assay; format: functional
# Staphylococcus aureus [9] = test: Antibacterial activity against vancomycin-resistant Staphylococcus aureus VRSA10 after 20 hrs by broth microdilution assay; format: functional; settings: VRSA10, 20 h
# Staphylococcus aureus [10] = test: Bactericidal activity against vancomycin-resistant Staphylococcus aureus VRSA10 incubated for 20 hrs followed by re-plating on tryptic soy agar plates at 37 degC for 18 hrs by broth microdilution assay; format: functional
# Staphylococcus aureus [11] = test: Antibacterial activity against vancomycin-resistant Staphylococcus aureus VRSA12 after 20 hrs by broth microdilution assay; format: functional; settings: VRSA12, 20 h
# Staphylococcus aureus [12] = test: Bactericidal activity against vancomycin-resistant Staphylococcus aureus VRSA12 incubated for 20 hrs followed by re-plating on tryptic soy agar plates at 37 degC for 18 hrs by broth microdilution assay; format: functional
# Enterococcus faecalis [13] = test: Antibacterial activity against vancomycin-resistant Enterococcus faecalis ATCC 51299 after 20 hrs by broth microdilution assay; format: functional; settings: ATCC 51299, 20 h
# Enterococcus faecalis [14] = test: Bactericidal activity against vancomycin-resistant Enterococcus faecalis ATCC 51299 incubated for 20 hrs followed by re-plating on tryptic soy agar plates at 37 degC for 18 hrs by broth microdilution assay; format: functional
# Enterococcus faecium [15] = test: Antibacterial activity against vancomycin-resistant Enterococcus faecium ATCC 700221 after 20 hrs by broth microdilution assay; format: functional; settings: ATCC 700221, 20 h
# Enterococcus faecium [16] = test: Bactericidal activity against vancomycin-resistant Enterococcus faecium ATCC 700221 incubated for 20 hrs followed by re-plating on tryptic soy agar plates at 37 degC for 18 hrs by broth microdilution assay; format: functional
# Listeria monocytogenes [17] = test: Antibacterial activity against Listeria monocytogenes ATCC 19111 after 20 hrs by broth microdilution assay; format: functional; settings: ATCC 19111, 20 h
# Streptococcus pneumoniae [18] = test: Antibacterial activity against cephalosporin-resistant Streptococcus pneumoniae ATCC 51916 after 20 hrs by broth microdilution assay; format: functional; settings: ATCC 51916, 20 h
# Streptococcus pneumoniae [19] = test: Antibacterial activity against methicillin-resistant Streptococcus pneumoniae ATCC 700677 after 20 hrs by broth microdilution assay; format: functional; settings: ATCC 700677, 20 h
# Staphylococcus aureus [20] = test: Antibacterial activity against Staphylococcus aureus after 20 hrs by broth microdilution assay; format: functional
# Staphylococcus aureus [21] = test: Antibacterial activity against methicillin-resistant Staphylococcus aureus after 20 hrs by broth microdilution assay; format: functional
# Staphylococcus aureus [22] = test: Antibacterial activity against methicillin-resistant Staphylococcus aureus NRS385 after 20 hrs by broth microdilution assay; format: functional; settings: NRS385, 20 h
# Staphylococcus aureus [23] = test: Antibacterial activity against methicillin-resistant Staphylococcus aureus NRS386 after 20 hrs by broth microdilution assay; format: functional; settings: NRS386, 20 h
# [24] = system: Staphylococcus epidermidis; test: Antibacterial activity against methicillin-resistant Staphylococcus epidermidis NRS101 after 20 hrs by broth microdilution assay; format: functional; settings: NRS101, 20 h
# [25] = system: Staphylococcus epidermidis; test: Bactericidal activity against methicillin-resistant Staphylococcus epidermidis NRS101 incubated for 20 hrs followed by re-plating on tryptic soy agar plates at 37 degC for 18 hrs by broth microdilution assay; format: functional
# Listeria monocytogenes [26] = test: Bactericidal activity against Listeria monocytogenes ATCC 19111 incubated for 20 hrs followed by re-plating on tryptic soy agar plates at 37 degC for 18 hrs by broth microdilution assay; format: functional
# Streptococcus pneumoniae [27] = test: Bactericidal activity against cephalosporin-resistant Streptococcus pneumoniae ATCC 51916 incubated for 20 hrs followed by re-plating on tryptic soy agar plates at 37 degC for 18 hrs by broth microdilution assay; format: functional
# Streptococcus pneumoniae [28] = test: Bactericidal activity against methicillin-resistant Streptococcus pneumoniae ATCC 700677 incubated for 20 hrs followed by re-plating on tryptic soy agar plates at 37 degC for 18 hrs by broth microdilution assay; format: functional
# Caco-2 = test: Cytotoxicity against human Caco2 cells assessed as effect on cell viability up to 64 ug/ml after 2 hrs by MTS assay; format: cell-based; settings: caco-2, 2 h
compound,measurement,setting,value
CO[C@H]1/C=C/O[C@@]2(C)Oc3c(C)c(O)c4c(O)c(c(/C=N/N5CCN(C)CC5)c(O)c4c3C2=O)NC(=O)/C(C)=C\C=C\[C@H](C)[C@H](O)[C@@H](C)[C@@H](O)[C@@H](C)[C@H](OC(C)=O)[C@@H]1C,Activity,Staphylococcus aureus [1],inactive
CCCCCCCCOc1ccc(-c2nc(C)c(-c3ccnc(N)n3)s2)cc1,MIC,Staphylococcus aureus [2],> 50 µg/mL
CN[C@H](CC(C)C)C(=O)N[C@H]1C(=O)N[C@@H](CC(N)=O)C(=O)N[C@H]2C(=O)N[C@H]3C(=O)N[C@H](C(=O)N[C@H](C(=O)O)c4cc(O)cc(O)c4-c4cc3ccc4O)[C@H](O)c3ccc(c(Cl)c3)Oc3cc2cc(c3O[C@@H]2O[C@H](CO)[C@@H](O)[C@H](O)[C@H]2O[C@H]2C[C@](C)(N)[C@H](O)[C@H](C)O2)Oc2ccc(cc2Cl)[C@H]1O [VANCOMYCIN],MIC,Staphylococcus aureus [2],1.56 µg/mL
same,MBC,Staphylococcus aureus [3],2 µg/mL
same,MBC,Staphylococcus aureus [4],1 µg/mL
same,MBC,Staphylococcus aureus [5],1 µg/mL
same,MBC,Staphylococcus aureus [6],1 µg/mL
same,MBC,Staphylococcus aureus [7],1 µg/mL
same,MBC,Staphylococcus aureus [8],1 µg/mL
same,MIC,Staphylococcus aureus [9],> 64 µg/mL
same,MBC,Staphylococcus aureus [10],> 64 µg/mL
same,MIC,Staphylococcus aureus [11],> 64 µg/mL
same,MBC,Staphylococcus aureus [12],> 64 µg/mL
same,MIC,Enterococcus faecalis [13],16 µg/mL
same,MBC,Enterococcus faecalis [14],64 µg/mL
same,MIC,Enterococcus faecium [15],> 64 µg/mL
same,MBC,Enterococcus faecium [16],> 64 µg/mL
same,MIC,Listeria monocytogenes [17],1 µg/mL
same,MIC,Streptococcus pneumoniae [18],2 µg/mL
same,MIC,Streptococcus pneumoniae [19],2 µg/mL
CCCCCCCOc1ccc(-c2nc(C)c(-c3ccnc(N)n3)s2)cc1,MIC,Staphylococcus aureus [2],> 50 µg/mL
CCCCCCCCOc1ccc(-c2nc(C)c(-c3ccnc(NC)n3)s2)cc1,MIC,Staphylococcus aureus [2],> 50 µg/mL
CCCCCCCOc1ccc(-c2nc(C)c(-c3ccnc(NC(=N)N4CCOCC4)n3)s2)cc1,MIC,Staphylococcus aureus [2],6.25 µg/mL
CCCCCCCOc1ccc(-c2nc(C)c(-c3ccnc(NC(=N)NC)n3)s2)cc1,MIC,Staphylococcus aureus [2],> 50 µg/mL
CCCCCCCCOc1ccc(-c2nc(C)c(-c3ccnc(NC(=N)N4CCOCC4)n3)s2)cc1,MIC,Staphylococcus aureus [2],6.25 µg/mL
CCCCCCCOc1ccc(-c2nc(C)c(-c3ccnc(N4CC(O)C4)n3)s2)cc1,MIC,Staphylococcus aureus [2],6.25 µg/mL
CCCCCCCCOc1ccc(-c2nc(C)c(-c3ccnc(N4CC(O)C4)n3)s2)cc1,MIC,Staphylococcus aureus [2],6.25 µg/mL
CCCCCCCCOc1ccc(-c2nc(C)c(-c3ccnc(NC(=N)NC)n3)s2)cc1,MIC,Staphylococcus aureus [2],> 50 µg/mL
CCCCCCCCOc1ccc(-c2nc(C)c(-c3ccnc(NC(=N)N)n3)s2)cc1,MIC,Staphylococcus aureus [2],1.56 µg/mL
CCCCCCCOc1ccc(-c2nc(C)c(-c3ccnc(NN4CCOCC4)n3)s2)cc1,MIC,Staphylococcus aureus [2],25 µg/mL
CCCCCCCOc1ccc(-c2nc(C)c(-c3ccnc(NC)n3)s2)cc1,MIC,Staphylococcus aureus [2],> 50 µg/mL
CCCCCCCCOc1ccc(-c2nc(C)c(-c3ccnc(NC(=N)N(C)C)n3)s2)cc1,MIC,Staphylococcus aureus [2],1.56 µg/mL
same,MIC,Staphylococcus aureus [20],8 µg/mL
same,MBC,Staphylococcus aureus [3],8 µg/mL
same,MIC,Staphylococcus aureus [21],8 to 16 µg/mL
same,MBC,Staphylococcus aureus [4],16 µg/mL
same,MBC,Staphylococcus aureus [5],16 µg/mL
same,MBC,Staphylococcus aureus [6],16 µg/mL
same,MIC,Staphylococcus aureus [22],16 µg/mL
same,MBC,Staphylococcus aureus [7],16 µg/mL
same,MIC,Staphylococcus aureus [23],16 µg/mL
same,MBC,Staphylococcus aureus [8],16 µg/mL
same,MIC,Staphylococcus aureus [9],16 µg/mL
same,MBC,Staphylococcus aureus [10],16 µg/mL
same,MIC,Staphylococcus aureus [11],16 µg/mL
same,MBC,Staphylococcus aureus [12],16 µg/mL
same,MIC,[24],4 µg/mL
same,MBC,[25],8 µg/mL
same,MIC,Enterococcus faecalis [13],32 µg/mL
same,MBC,Enterococcus faecalis [14],32 µg/mL
same,MIC,Enterococcus faecium [15],8 µg/mL
same,MBC,Enterococcus faecium [16],8 µg/mL
same,MIC,Listeria monocytogenes [17],4 µg/mL
same,MBC,Listeria monocytogenes [26],8 µg/mL
same,MIC,Streptococcus pneumoniae [18],16 µg/mL
same,MBC,Streptococcus pneumoniae [27],16 µg/mL
same,MIC,Streptococcus pneumoniae [19],16 µg/mL
same,MBC,Streptococcus pneumoniae [28],32 µg/mL
same,Activity,Caco-2,Non-Toxic
CCCCCCCCOc1ccc(-c2nc(C)c(-c3ccnc(NC(=N)N4CCN(C)CC4)n3)s2)cc1,MIC,Staphylococcus aureus [2],0.78 µg/mL
same,MIC,Staphylococcus aureus [20],16 µg/mL
same,MBC,Staphylococcus aureus [3],> 64 µg/mL
same,MIC,Staphylococcus aureus [21],16 to 32 µg/mL
same,MBC,Staphylococcus aureus [4],32 µg/mL
same,MBC,Staphylococcus aureus [5],32 µg/mL
same,MBC,Staphylococcus aureus [6],16 µg/mL
same,MIC,Staphylococcus aureus [22],16 µg/mL
same,MBC,Staphylococcus aureus [7],16 µg/mL
same,MIC,Staphylococcus aureus [23],16 µg/mL
same,MBC,Staphylococcus aureus [8],16 µg/mL
same,MIC,Staphylococcus aureus [9],8 µg/mL
same,MBC,Staphylococcus aureus [10],8 µg/mL
same,MIC,Staphylococcus aureus [11],16 µg/mL
same,MBC,Staphylococcus aureus [12],16 µg/mL
same,MIC,[24],8 µg/mL
same,MBC,[25],8 µg/mL
same,MIC,Enterococcus faecalis [13],16 µg/mL
same,MBC,Enterococcus faecalis [14],64 µg/mL
same,MIC,Enterococcus faecium [15],16 µg/mL
same,MBC,Enterococcus faecium [16],16 µg/mL
same,MIC,Listeria monocytogenes [17],4 µg/mL
same,MBC,Listeria monocytogenes [26],8 µg/mL
same,MIC,Streptococcus pneumoniae [18],32 µg/mL
same,MBC,Streptococcus pneumoniae [27],32 µg/mL
same,MIC,Streptococcus pneumoniae [19],16 µg/mL
same,MBC,Streptococcus pneumoniae [28],32 µg/mL
same,Activity,Caco-2,Non-Toxic
CCCCCCCOc1ccc(-c2nc(C)c(-c3ccnc(NC(=N)N)n3)s2)cc1,MIC,Staphylococcus aureus [2],1.56 µg/mL
CCCCCCCOc1ccc(-c2nc(C)c(-c3ccnc(NN)n3)s2)cc1,MIC,Staphylococcus aureus [2],3.12 µg/mL
same,MIC,Staphylococcus aureus [20],16 µg/mL
same,MBC,Staphylococcus aureus [3],> 64 µg/mL
same,MIC,Staphylococcus aureus [21],32 µg/mL
same,MBC,Staphylococcus aureus [4],64 µg/mL
same,MBC,Staphylococcus aureus [5],> 64 µg/mL
same,MBC,Staphylococcus aureus [6],> 64 µg/mL
same,MIC,Staphylococcus aureus [22],32 µg/mL
same,MBC,Staphylococcus aureus [7],64 µg/mL
same,MIC,Staphylococcus aureus [23],32 µg/mL
same,MBC,Staphylococcus aureus [8],> 64 µg/mL
same,MIC,Staphylococcus aureus [9],64 µg/mL
same,MBC,Staphylococcus aureus [10],> 64 µg/mL
same,MIC,Staphylococcus aureus [11],64 µg/mL
same,MBC,Staphylococcus aureus [12],> 64 µg/mL
same,MIC,[24],64 µg/mL
same,MBC,[25],64 µg/mL
same,MIC,Enterococcus faecalis [13],> 64 µg/mL
same,MBC,Enterococcus faecalis [14],> 64 µg/mL
same,MIC,Enterococcus faecium [15],64 µg/mL
same,MBC,Enterococcus faecium [16],> 64 µg/mL
same,MIC,Listeria monocytogenes [17],16 µg/mL
same,MBC,Listeria monocytogenes [26],> 64 µg/mL
same,MIC,Streptococcus pneumoniae [18],> 64 µg/mL
same,MBC,Streptococcus pneumoniae [27],> 64 µg/mL
same,MIC,Streptococcus pneumoniae [19],> 64 µg/mL
same,MBC,Streptococcus pneumoniae [28],> 64 µg/mL
CCCCCCCCOc1ccc(-c2nc(C)c(-c3ccnc(NN)n3)s2)cc1,MIC,Staphylococcus aureus [2],3.12 µg/mL
